Source: US6855801B1, “Peptides modulating activities of heparin other glycosaminoglycans or proteoglycans” (Thomas Jefferson University, priority 1999, dated 2005)
Where “and” joins values, the source holds several entries; their conditions need not be identical. Equal values may be shown once. Read-outs that look alike come from different tables or passages of the source.

Key:
Lovenox = test: Reversal of anti-Factor Xa activity in vitro (Stachrom Heparin chromogenic assay), Lovenox; assay type: biochemical, human; conditions: for Percent Reversal of anti-Factor Xa Activity, Lovenox: 0.5 U/ml anti-Factor Xa activity
Procedure: (§1) Solutions of Lovenox, Orgaran, or unfractionated heparin (Sigma) were prepared in 0.32% sodium citrate or in normal human plasma to contain 0.5 U/ml anti-FXa activity. Calibrations were made against the standards provided by the Stachrom Heparin (Diagnostica Stago) assay kit. The heparin/ATIII complex was allowed to form at 37° C. for 2 minutes, peptide was added, the mixture was incubated for an additional 1-5 minutes, and then Factor Xa was added, and finally the color reagent, for one minute, and the absorbance was read at 405 nm. The increase in absorbance from the heparinized control to the test sample was divided by the difference in A405 between the heparinized control and the control without heparin to obtain the % reversal.

Orgaran = test: Reversal of anti-Factor Xa activity in vitro (Stachrom Heparin chromogenic assay), Orgaran; assay type: biochemical, human; conditions: for Percent Reversal of anti-Factor Xa Activity, Orgaran: 0.5 U/ml anti-Factor Xa activity
Procedure: as §1

unfractionated heparin [1] = test: Reversal of anti-Factor Xa activity in vitro (Stachrom Heparin chromogenic assay), unfractionated heparin; assay type: biochemical, human; conditions: for Percent Reversal of anti-Factor Xa Activity, Heparin (unfractionated): 0.5 U/ml anti-Factor Xa activity
Procedure: as §1

[2] = Affinity coelectrophoresis (ACE) of radiolabeled heparin through peptides; assay type: binding, pig; conditions: for heparin-binding affinity in words: ACE, low Mr heparin
Description: Preparation of Radiolabeled Heparin—Whole heparin from pig intestinal mucosa (Sigma) was tyramine end-labeled and radiolabeled with Na^125I (Amersham, Pharmacia Biotech, Inc., Piscataway, N.J.) to an average specific activity ≅1.0×10^7 CPM/μg as described^59. Radiolabeled heparin was fractionated on Sephadex G-100 (Bio-Rad Laboratories, Hercules, Calif.) and the final ≅12% of material to elute was retained as the low Mr material of ≦6,000 (Jordan, R., D. Beeler, and R. Rosenberg, J Biol Chem, 254:2902-2913, 1979; Laurent, T. C., et al., Biochem J, 175:691-701, 1978).
(§2) Briefly, peptides were dissolved in 1×ACE running buffer, 50 mM sodium 3-(N-morpholino)-2-hydroxypropanesulfonate (MOPSO, Sigma)/125 mM sodium acetate, pH 7.0, and serially diluted in running buffer at 2× concentrations. Peptides were then mixed 1:1 with 2% agarose/1% CHAPS, 3-[(3-cholamidopropyl)dimethylammonio]-1-propanesulfonate, (Boehringer Mannheim, Indianapolis, Ind.), and loaded into wells of a 1% agarose gel. Radiolabeled heparin or HUVEC PGs were then loaded in a slot on the […] side of the gel, and electrophoresed through the peptide-containing wells, towards the cathode. Gels were dried and PG mobility was measured with a Phosphorimager (Molecular Dynamics, Sunnyvale, Calif.) by scanning each protein lane and determining the relative radioactivity content per. 88-μm pixel through the length of the lane. Retardation coefficient (R) measurements, binding isotherm curve fittings, and apparent Kd value determinations were calculated as detailed previously (Lee, M. K., and A. D. Lander, Proc Nat Acad Sci USA, 88:2768-2772, 1991; San Antonio, J. D., et al, Biochem, 32:47464755, 1993).
Some peptides were also analyzed by ACE for heparin-binding under reducing conditions. Thus, after serial peptide dilution, β-mercaptoethanol (β-ME) was added at 5% to each peptide sample, and these were mixed 1:1 with 2% agarose/1% CHAPS/5% β-ME, and added to the ACE gel sample wells as usual.

HUVEC PGs = test: ACE of HUVEC PGs/GAGs through peptide; assay type: binding, human
Procedure: as §2
Binding analysis of peptides to enzymatically or chemically degraded PGs (see below) was carried out by ACE as detailed, except that PG samples included 6 M urea to denature any residual enzymes.
Cell Culture—HUVEC were isolated as detailed elsewhere (Gimbrone, M. A., In Progress in Hematology and Thrombosis. Vol. III. B. S. Collen, editor. W B Saunders, Philadelphia. 1-28, 1976) and were used up to passage seven. Cells were cultured on 0.2% gelatin-coated tissue culture flasks in normal culture media composed of medium 199 (Gibco BRL, Gaithersburg, Md.), 10% fetal bovine serum (FBS, Mediatech Inc.), 80 μg/ml endothelial cell growth supplement isolated from bovine hypothalami as described (Maciag, T., et al., Proc Nat Acad Sci USA, 76 (11):5674-5678, 1979), 50 μg/ml heparin (porcine intestinal mucosa, grade 1A, Sigma) 1% penicillin-streptomycin, and 0.1% fungizone.
Radiolabeling and Isolation of Total HUVEC PGs and GAGs—Exponentially growing, subconfluent HUVEC were labeled with 35μCi/ml ^35S-Na2SO4 (ICN Pharmaceuticals, Costa Mesa, Calif.) in normal culture media minus heparin for 12 h. Culture media and cell layers were harvested separately. After removal of the media, cells were washed with 2.0 ml PBS plus Ca^2+-Mg^2′. Media and rinses were pooled and brought to 6 M urea, 10 mM EDTA, 1 mM phenymethylsulfonyl fluoride (PMSF), 5 mM N-ethylmaleimide (NEM), 50 mM 6-aminocaproic acid, 5 mM benzamidine, and 1 μg/ml pepstatin A. Samples were stirred for 15 min at room temperature, then centrifuged at 10,000 rpm for 30 min to remove insoluble materials.
To the cell layer was added 2.0 ml of extraction solution, 6M urea, 100 mM NaCl, 0.2% Triton X-100, 50 mM Tris-HCl, pH 7.0, and protease inhibitors as described above. Cells were scraped off the dishes, and the extracts were pooled and stirred for 5 min at room temperature, and then centrifuged as described above.
Samples were concentrated on DEAE columns (DEAE Bio-Gel A Agarose, Bio-Rad Laboratories) equilibrated with low salt buffer, 0.1 M NaCl, 6 M urea, and 50 mM Tris-HCl, pH 7.0. Columns were rinsed with 10 ml of low salt buffer; flow through was discarded. Bound PGs/GAGs were eluted with 3 ml of high salt buffer, 1.5 M NaCl, 6 M urea, and 50 mM Tris-HCl, pH 7.0. Eluted samples were dialyzed against distilled water, lyophilized and stored at −20° C. until binding analysis.
Enzymatic Digestions of PGs—The contributions of PG GAG chain components to peptide binding affinities were assessed by selective enzymatic degradation of GAG chains prior to ACE analysis. ^35S-Na2SO4 labeled HUVEC PGs were digested with chondroitinase ABC, or heparatinase I (Seikagaku America, Ijamsville, Md.). […]

unfractionated heparin [3] = test: Reversal of anti-thrombin effects of unfractionated heparin in vitro (thrombin clotting time in plasma); assay type: biochemical, human; conditions: heparin 0.5 U/ml; thrombin standardized to clotting time 20-22 seconds
Procedure: Plasma was obtained from normal donors. Thrombin concentration (human alpha thrombin, Enzyme Research Laboratories, South Bend, Ind.) was standardized to produce a clotting time of 20-22 seconds. Heparin was added at 0.5 IU anti-thrombin activity/ml. The clotting time for heparin alone was approximately 3 minutes. To test the effects of the peptides in this system, one minute after addition of heparin to the plasma, the peptides were added in concentrations ranging from 1-200 μg/ml. After one minute, thrombin was added and the clotting time determined. The effects of the peptides were concentration dependent. The clotting time was restored to normal values in all samples at the dosages shown below in Table III. The ability of the peptides to neutralize heparin inhibition of thrombin clotting time was consistent with the binding affinities shown in Table I, and with the effectiveness against low molecular weight heparin anti-Factor Xa activity in Table II.

Row | Substance | Percent Reversal of anti-Factor Xa Activity, Lovenox (Lovenox; peptide 0.6 mg/ml in plasma) [%] | Percent Reversal of anti-Factor Xa Activity, Orgaran (Orgaran; peptide 0.6 mg/ml in plasma) [%] | Percent Reversal of anti-Factor Xa Activity, Heparin (unfractionated) (unfractionated heparin [1]; peptide 0.6 mg/ml in plasma) [%] | heparin-binding affinity in words [2] | μg peptide/ml heparinized plasma needed to normalize thrombin time (unfractionated heparin [3]) | also measured
1 | (ARKKPAKA)3 (ARKKPAKAARKKPAKAARKKPAKA; protein fragment) [proline in each tandem repeat in place of an alanine] | 100 | 66.5 | 99.0 | – | – | Percent Reversal of anti-Factor Xa Activity, Lovenox (Lovenox; peptide 0.12 mg/ml in plasma): 62.0%; Percent Reversal of anti-Factor Xa Activity, Lovenox (Lovenox; peptide 0.4 mg/ml in plasma): 62.5%; Percent Reversal of anti-Factor Xa Activity, Orgaran (Orgaran; peptide 0.12 mg/ml in plasma): 45.0%; Percent Reversal of anti-Factor Xa Activity, Orgaran (Orgaran; peptide 0.4 mg/ml in plasma): 67.5%; Percent Reversal of anti-Factor Xa Activity, Heparin (unfractionated) (unfractionated heparin [1]; peptide 0.12 mg/ml in plasma): 90.0%; Percent Reversal of anti-Factor Xa Activity, Heparin (unfractionated) (unfractionated heparin [1]; peptide 0.4 mg/ml in plasma): 50.0%
2 | AAARRARAAAARAKA | – | – | – | – | – | decrease in heparin-binding affinity versus native mouse SG peptide ([2]; modified sequence versus YPARRARYQWVRCKP): 350 fold
3 | AKKARA | – | – | – | do not bind heparin with a measurable affinity | – | –
4 | (ARKKAAKA)4 (ARKKAAKAARKKAAKAARKKAAKAARKKAAKA; protein fragment) [XBBBXXBX tandem repeat peptide] | 73 | 70.5 | 87.5 | – | – | Kd (HUVEC PGs; 35S-labeled secreted/total EC PGs, read-out: Kd for total (secreted) HUVEC PGs): ~300 nM; Kd for HUVEC PGs devoid of CS GAGs via chondroitinase ABC (ABC) digestion (HUVEC PGs; chondroitinase ABC digested PGs): comparable affinity; Kd (HUVEC PGs; chondroitinase ABC digested PGs, read-out: Kd for HUVEC PGs devoid of CS GAGs via chondroitinase ABC (ABC) digestion): ~300 nM; Kd (HUVEC PGs; free GAG chains of total PGs, read-out: Kd for GAG chains liberated from core protein by borohydride reduction (BH)): ~1200 nM; reduction in affinity after borohydride release of GAG chains (HUVEC PGs; free GAG chains versus intact PGs): 3 fold and 3-4 fold; Kd for HUVEC PGs devoid of HS GAGs via heparatinase I digestion (H) (HUVEC PGs; heparatinase I digested PGs): comparable affinity; Kd (HUVEC PGs; heparatinase I digested PGs, read-out: Kd for HUVEC PGs devoid of HS GAGs via heparatinase I digestion (H)): ~300 nM; Kd for HUVEC PGs devoid of HS GAGs via nitrous acid treatment (NA) (HUVEC PGs; nitrous acid degraded PGs): comparable affinity; Kd (HUVEC PGs; nitrous acid degraded PGs, read-out: Kd for HUVEC PGs devoid of HS GAGs via nitrous acid treatment (NA)): ~300 nM
5 | YPARRARYQWVRAKP [murine serglycin, cysteine replaced with alanine] | 0 | 2.0 | 25.0 | negligible | – | –
6 | ARKKAAKA | – | – | – | do not bind heparin with a measurable affinity | – | –
7 | (ARRRAARA)3 [XBBBXXBX tandem repeat peptide] | 67.5 | 67.0 | 57.5 | – | – | –
8 | AKKARAAKKARAAKKARAAKKARAAKKARAAKKARA [(AKKARA)6, XBBXBX tandem repeat peptide] | 82.5 | 77 | 93 | strong | 5 μg peptide/ml heparinized plasma | Percent Reversal of anti-Factor Xa Activity, Lovenox (Lovenox; peptide 0.12 mg/ml in plasma): 86%; Percent Reversal of anti-Factor Xa Activity, Lovenox (Lovenox; peptide 0.4 mg/ml in plasma): 86.5%; Percent Reversal of anti-Factor Xa Activity, Orgaran (Orgaran; peptide 0.12 mg/ml in plasma): 74.5%; Percent Reversal of anti-Factor Xa Activity, Orgaran (Orgaran; peptide 0.4 mg/ml in plasma): 81.5%; Percent Reversal of anti-Factor Xa Activity, Heparin (unfractionated) (unfractionated heparin [1]; peptide 0.12 mg/ml in plasma): 99%; Percent Reversal of anti-Factor Xa Activity, Heparin (unfractionated) (unfractionated heparin [1]; peptide 0.4 mg/ml in plasma): 97.5%
9 | YPARRARYQWVRCKP | 25.0 | 16.5 | 77.0 | – | 15 μg peptide/ml heparinized plasma | heparin-binding under reducing conditions in words ([2]; ACE with β-ME): negligible heparin-binding
10 | YPTQRARYQWVRCNP | 0 | 5 | 90 | – | 100 μg peptide/ml heparinized plasma | effectiveness against Lovenox / low molecular weight heparin in vitro, in words (Lovenox; text summary of Table II): not against Lovenox; effectiveness against Orgaran in vitro, in words (Orgaran; text summary of Table II): highly effective; effectiveness against UFH / heparin in vitro, in words (unfractionated heparin [1]; text summary of Table II): highly effective
11 | AKKARAAKKARAAKKARAAKKARAAKKARA [(AKKARA)5, XBBXBX tandem repeat peptide] | – | – | – | strong | – | –
12 | (AKAAKKRA)3 (AKAAKKRAAKAAKKRAAKAAKKRA; protein fragment) [XBBBXXBX tandem repeat peptide, reversed orientation] | 93.5 | 72.0 | 94.0 | – | >50 μg peptide/ml heparinized plasma | –
13 | (ARKKAAKA)5 (ARKKAAKAARKKAAKAARKKAAKAARKKAAKAARKKAAKA; protein fragment) [XBBBXXBX tandem repeat peptide] | 81.5 | 83.0 | 94.5 | – | 21 μg peptide/ml heparinized plasma | Percent Reversal of anti-Factor Xa Activity, Lovenox (Lovenox; peptide 0.12 mg/ml in plasma): 68.5%; Percent Reversal of anti-Factor Xa Activity, Lovenox (Lovenox; peptide 0.4 mg/ml in plasma): 71.0%; Percent Reversal of anti-Factor Xa Activity, Orgaran (Orgaran; peptide 0.12 mg/ml in plasma): 75.0%; Percent Reversal of anti-Factor Xa Activity, Orgaran (Orgaran; peptide 0.4 mg/ml in plasma): 75.0%; Percent Reversal of anti-Factor Xa Activity, Heparin (unfractionated) (unfractionated heparin [1]; peptide 0.12 mg/ml in plasma): 64.5%; Percent Reversal of anti-Factor Xa Activity, Heparin (unfractionated) (unfractionated heparin [1]; peptide 0.4 mg/ml in plasma): 93.0%
14 | ARKKAAKAARKKPAKAARKKAAKA | 83.0 | 67.0 | 57.5 | – | – | –
